Data from patent US12643903B2, “Bifunctional compounds for degradation of EGFR and related methods of use” (BeiGene, Ltd., priority 2020, dated 2026).

How the values were obtained:
[1] = biological target: T1, EGFR (Homo sapiens, UniProt P00533, DEL746-750); test: Cell Degradation 2: EGFR degradation in HCC827 cells, HTRF assay; type: cell-based; conditions: 16 h treatment, EGFR degradation by HTRF
T1 construct: endogenous in cells; host or cells: HCC827
Experimental: (§1) After 16 h treatment, add 100 μl 1×lysis buffer to each well; seal the plate and incubate 1 hour at room temperature on a plate shaker; Once the cells are lysed, 16 μl diluted (2 μL to 14 μl 1× lysisi buffer) cell lysate are transferred to a PE 384-well HTRF detection plate; 4 μL of pre-mixed HTRF antibodies are added to each well; Cover the plate with a plate sealer, spin 1000 rpm for 1 min, Incubate overnight at room temperature; Read on BMG PheraStar with HTRF protocol (337 nm-665 nm-620 nm).
(§2) The IC50 (DC50) value of a compound can be obtained by fitting the following equation Y=Bottom+(TOP−Bottom)/(1+((IC50/X)^hillslope))
(§3) Wherein, X and Y are known values, and IC50, Hillslope, Top and Bottom are the parameters obtained by fitting with software. Y is the inhibition percentage (calculated from the equation), X is the concentration of the compound; IC50 is the concentration of the compound when the 50% inhibition is reached. The smaller the IC50 value is, the stronger the inhibitory ability of the compound is. Vice versa, the higher the IC50 value is, the weaker the ability the inhibitory ability of the compound is; Hillslope represents the slope of the fitted curve, generally around 1*; Bottom represents the minimum value of the curve obtained by data fitting, which is generally 0%±20%; Top represents the maximum value of the curve obtained by data fitting, which is generally 100%±20%. The experimental data were fitted by calculating and analyzing with Dotmatics data analysis software.

[2] = biological target: T2, EGFR (Homo sapiens, UniProt P00533, L858R/T790M); test: Cell Degradation 1: EGFR degradation in H1975 cells, HTRF assay; type: cell-based; conditions: 16 h treatment, EGFR degradation by HTRF
T2 construct: endogenous in cells; host or cells: H1975
T2 sequence (P00533 25-1210 T790M/L858R): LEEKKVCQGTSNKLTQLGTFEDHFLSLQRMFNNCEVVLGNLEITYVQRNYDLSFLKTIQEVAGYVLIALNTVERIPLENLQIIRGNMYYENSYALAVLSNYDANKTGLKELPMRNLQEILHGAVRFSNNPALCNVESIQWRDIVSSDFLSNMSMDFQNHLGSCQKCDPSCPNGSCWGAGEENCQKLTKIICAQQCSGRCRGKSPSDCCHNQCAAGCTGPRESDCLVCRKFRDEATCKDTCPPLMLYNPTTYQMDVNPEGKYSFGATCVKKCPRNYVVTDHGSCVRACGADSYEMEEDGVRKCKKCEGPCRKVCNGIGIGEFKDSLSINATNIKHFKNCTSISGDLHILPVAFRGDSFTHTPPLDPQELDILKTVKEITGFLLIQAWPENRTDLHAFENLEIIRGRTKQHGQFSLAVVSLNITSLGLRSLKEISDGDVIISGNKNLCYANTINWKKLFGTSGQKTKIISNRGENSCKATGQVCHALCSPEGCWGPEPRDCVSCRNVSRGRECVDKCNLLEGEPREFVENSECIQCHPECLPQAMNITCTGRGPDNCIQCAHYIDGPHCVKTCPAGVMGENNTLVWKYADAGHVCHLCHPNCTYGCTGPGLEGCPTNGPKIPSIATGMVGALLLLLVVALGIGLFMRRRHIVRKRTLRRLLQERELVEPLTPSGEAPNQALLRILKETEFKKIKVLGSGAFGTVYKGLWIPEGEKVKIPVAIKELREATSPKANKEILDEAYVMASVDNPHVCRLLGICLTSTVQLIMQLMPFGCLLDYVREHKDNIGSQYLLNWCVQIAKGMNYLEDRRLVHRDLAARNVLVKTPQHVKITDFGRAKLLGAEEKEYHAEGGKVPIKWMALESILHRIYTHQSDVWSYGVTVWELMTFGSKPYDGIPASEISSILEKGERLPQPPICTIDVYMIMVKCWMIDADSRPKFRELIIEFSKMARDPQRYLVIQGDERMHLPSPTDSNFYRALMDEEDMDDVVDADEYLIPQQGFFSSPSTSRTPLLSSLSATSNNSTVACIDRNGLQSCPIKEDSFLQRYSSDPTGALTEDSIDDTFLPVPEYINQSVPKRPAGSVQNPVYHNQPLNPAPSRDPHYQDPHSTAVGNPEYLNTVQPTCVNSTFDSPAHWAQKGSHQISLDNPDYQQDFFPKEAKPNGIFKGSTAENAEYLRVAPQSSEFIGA
Experimental: as §1, with “16” for “16 μl diluted (2”, “of” for “to 14 μl 1× lysisi buffer)”
as §2, §3

T1 sequence (P00533 with tags, fused parts or gaps DEL746-750): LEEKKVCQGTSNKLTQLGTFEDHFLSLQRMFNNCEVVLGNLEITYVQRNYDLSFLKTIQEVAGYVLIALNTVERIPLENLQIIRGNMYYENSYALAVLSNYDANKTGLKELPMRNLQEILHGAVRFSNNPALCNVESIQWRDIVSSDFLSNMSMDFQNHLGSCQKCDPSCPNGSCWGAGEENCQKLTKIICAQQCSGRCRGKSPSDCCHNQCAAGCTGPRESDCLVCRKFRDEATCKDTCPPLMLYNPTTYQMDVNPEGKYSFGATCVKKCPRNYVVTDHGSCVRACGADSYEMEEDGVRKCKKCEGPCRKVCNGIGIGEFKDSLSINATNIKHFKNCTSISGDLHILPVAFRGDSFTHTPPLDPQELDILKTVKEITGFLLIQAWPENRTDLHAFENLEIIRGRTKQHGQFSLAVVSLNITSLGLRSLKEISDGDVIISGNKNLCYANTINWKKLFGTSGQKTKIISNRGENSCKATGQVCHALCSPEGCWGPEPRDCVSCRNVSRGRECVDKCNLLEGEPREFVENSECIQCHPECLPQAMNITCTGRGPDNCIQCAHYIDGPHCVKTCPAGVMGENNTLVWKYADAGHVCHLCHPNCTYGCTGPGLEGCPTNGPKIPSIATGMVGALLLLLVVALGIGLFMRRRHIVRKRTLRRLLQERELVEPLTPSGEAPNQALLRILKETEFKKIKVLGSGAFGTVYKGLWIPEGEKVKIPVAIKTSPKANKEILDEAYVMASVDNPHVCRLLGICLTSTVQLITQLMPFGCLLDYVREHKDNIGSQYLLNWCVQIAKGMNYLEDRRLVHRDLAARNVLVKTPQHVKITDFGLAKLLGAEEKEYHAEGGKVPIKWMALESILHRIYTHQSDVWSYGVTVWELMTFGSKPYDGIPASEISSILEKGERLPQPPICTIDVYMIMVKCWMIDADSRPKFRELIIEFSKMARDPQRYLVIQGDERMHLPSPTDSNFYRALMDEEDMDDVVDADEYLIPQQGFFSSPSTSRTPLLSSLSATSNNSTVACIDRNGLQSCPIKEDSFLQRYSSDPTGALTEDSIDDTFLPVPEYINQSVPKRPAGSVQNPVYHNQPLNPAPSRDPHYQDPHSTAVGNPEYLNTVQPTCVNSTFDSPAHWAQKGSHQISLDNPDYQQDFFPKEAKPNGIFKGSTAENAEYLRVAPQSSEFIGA
T1 sequence (Q96SW2 whole entry partner): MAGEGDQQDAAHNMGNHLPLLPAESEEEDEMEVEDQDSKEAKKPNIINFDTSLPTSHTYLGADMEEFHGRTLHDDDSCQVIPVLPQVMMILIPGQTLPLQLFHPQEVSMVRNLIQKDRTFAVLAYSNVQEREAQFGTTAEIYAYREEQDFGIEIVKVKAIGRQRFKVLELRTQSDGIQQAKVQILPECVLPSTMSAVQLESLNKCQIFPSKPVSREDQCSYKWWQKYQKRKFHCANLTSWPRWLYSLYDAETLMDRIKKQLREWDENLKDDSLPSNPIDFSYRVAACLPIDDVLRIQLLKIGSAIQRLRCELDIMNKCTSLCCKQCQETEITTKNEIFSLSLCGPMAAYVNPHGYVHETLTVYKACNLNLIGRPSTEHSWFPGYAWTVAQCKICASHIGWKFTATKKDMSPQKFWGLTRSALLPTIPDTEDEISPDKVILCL

Compound	DC50 [1] [nM]	DC50 [2] [nM]
CS(=O)(=O)N1CCc2cccc(Nc3nc(Nc4ccc(N5CCC(N6CCN(CCC7CCN(c8ccc9c(c8)CN(C8CCC(=O)NC8=O)C9=O)CC7)CC6)CC5)c(F)c4)nc4[nH]ccc34)c21 (stereo not drawn) [Example 18, 3-(5-(4-(2-(4-(1-(2-fluoro-4-((4-((1-(methylsulfonyl)indolin-7-yl)amino)-7H-pyrrolo[2,3-d]pyrimidin-2-yl)amino)phenyl)piperidin-4-yl)piperazin-1-yl)ethyl)piperidin-1-yl)-1-oxoisoindolin-2-yl)piperidine-2,6-dione]	10.8	14.1
CS(=O)(=O)N1CCc2cccc(Nc3nc(Nc4ccc(N5CCC(N6CCN(CCOc7cccc8c7CN(C7CCC(=O)NC7=O)C8=O)CC6)CC5)c(F)c4)nc4[nH]ccc34)c21 (stereo not drawn) [Example 20, 3-(4-(2-(4-(1-(2-fluoro-4-((4-((1-(methylsulfonyl)indolin-7-yl)amino)-7H-pyrrolo[2,3-d]pyrimidin-2-yl)amino)phenyl)piperidin-4-yl)piperazin-1-yl)ethoxy)-1-oxoisoindolin-2-yl)piperidine-2,6-dione]	14.7	9.7
COc1cc(N2CCC(N3CCN(CCc4ccc(C5CCC(=O)NC5=O)cc4)CC3)CC2)ccc1Nc1nc(Nc2cccc3c2N(S(C)(=O)=O)CC3)c2cc[nH]c2n1 (stereo not drawn) [Example 21, 3-(4-(2-(4-(1-(3-methoxy-4-((4-((1-(methylsulfonyl)indolin-7-yl)amino)-7H-pyrrolo[2,3-d]pyrimidin-2-yl)amino)phenyl)piperidin-4-yl)piperazin-1-yl)ethyl)phenyl)piperidine-2,6-dione]	113	38.4
CS(=O)(=O)N1CCc2cccc(Nc3nc(Nc4ccc(N5CCN(CCC6CCN(c7ccc(C8CCC(=O)NC8=O)cc7)CC6)CC5)c(F)c4)nc4[nH]ccc34)c21 (stereo not drawn) [Example 27, 3-(4-(4-(2-(4-(2-fluoro-4-((4-((1-(methylsulfonyl)indolin-7-yl)amino)-7H-pyrrolo[2,3-d]pyrimidin-2-yl)amino)phenyl)piperazin-1-yl)ethyl)piperidin-1-yl)phenyl)piperidine-2,6-dione]	33.6	10.6
COc1cc(N2CCC(N3CCN(CC4CCN(c5ccc(C6CCC(=O)NC6=O)cc5)CC4)CC3)CC2)c(C)cc1Nc1ncc(Br)c(Nc2cccc3c2N(S(C)(=O)=O)CC3)n1 (stereo not drawn) [Example 40, 3-(4-(4-((4-(1-(4-((5-bromo-4-((1-(methylsulfonyl)indolin-7-yl)amino)pyrimidin-2-yl)amino)-5-methoxy-2-methylphenyl)piperidin-4-yl)piperazin-1-yl)methyl)piperidin-1-yl)phenyl)piperidine-2,6-dione]	8.2	10.5
COc1cc(N2CCC(N3CCN(CCC4CCN(c5ccc(C6CCC(=O)NC6=O)cc5)CC4)CC3)CC2)c(C)cc1Nc1ncc(Br)c(Nc2cccc3c2N(S(C)(=O)=O)CC3)n1 (stereo not drawn) [Example 41, 3-(4-(4-(2-(4-(1-(4-((5-bromo-4-((1-(methylsulfonyl)indolin-7-yl)amino)pyrimidin-2-yl)amino)-5-methoxy-2-methylphenyl)piperidin-4-yl)piperazin-1-yl)ethyl)piperidin-1-yl)phenyl)piperidine-2,6-dione]	16.7	20.7
COc1cc(N2CCC(N3CCN(C(=O)CCN4CCN(c5ccc6c(c5)C(=O)N(C5CCC(=O)NC5=O)C6=O)CC4)CC3)CC2)c(C)cc1Nc1ncc(Br)c(Nc2cccc3c2N(S(C)(=O)=O)CC3)n1 (stereo not drawn) [Example 42, 5-(4-(3-(4-(1-(4-((5-bromo-4-((1-(methylsulfonyl)indolin-7-yl)amino)pyrimidin-2-yl)amino)-5-methoxy-2-methylphenyl)piperidin-4-yl)piperazin-1-yl)-3-oxopropyl)piperazin-1-yl)-2-(2,6-dioxopiperidin-3-yl)isoindoline-1,3-dione]	4.9	13.5
COc1cc(N2CCC(N3CCN(C(=O)C4CCN(CC5CCN(c6ccc7c(c6)C(=O)N(C6CCC(=O)NC6=O)C7=O)CC5)CC4)CC3)CC2)c(C)cc1Nc1ncc(Br)c(Nc2cccc3c2N(S(C)(=O)=O)CC3)n1 (stereo not drawn) [Example 43, 5-(4-((4-(4-(1-(4-((5-bromo-4-((1-(methylsulfonyl)indolin-7-yl)amino)pyrimidin-2-yl)amino)-5-methoxy-2-methylphenyl)piperidin-4-yl)piperazine-1-carbonyl)piperidin-1-yl)methyl)piperidin-1-yl)-2-(2,6-dioxopiperidin-3-yl)isoindoline-1,3-dione]	11.1	49.1
COc1cc(N2CCC(N3CCN(CCCC4CN(c5ccc6c(c5)C(=O)N(C5CCC(=O)NC5=O)C6=O)C4)CC3)CC2)c(C)cc1Nc1ncc(Br)c(Nc2cccc3c2N(S(C)(=O)=O)CC3)n1 (stereo not drawn) [Example 44, 5-(3-(3-(4-(1-(4-((5-bromo-4-((1-(methylsulfonyl)indolin-7-yl)amino)pyrimidin-2-yl)amino)-5-methoxy-2-methylphenyl)piperidin-4-yl)piperazin-1-yl)propyl)azetidin-1-yl)-2-(2,6-dioxopiperidin-3-yl)isoindoline-1,3-done]	4.6	10.9
CN(CCC1CCN(c2ccc3c(c2)C(=O)N(C2CCC(=O)NC2=O)C3=O)CC1)C1CCN(c2ccc(Nc3ncc(Cl)c(Nc4cccc5c4N(S(C)(=O)=O)CC5)n3)c3c2CCO3)CC1 (stereo not drawn) [Example 47, 5-(4-(2-((1-(7-((5-chloro-4-((1-(methylsulfonyl)indolin-7-yl)amino)pyrimidin-2-yl)amino)-2,3-dihydrobenzofuran-4-yl)piperidin-4-yl)(methyl)amino)ethyl)piperidin-1-yl)-2-(2,6-dioxopiperidin-3-yl)isoindoline-1,3-dione]	13.8	21.4

The next lines start with the values.

DC50 [1] [nM]	DC50 [2] [nM]	Compound
32.2	23.2	CN(CCC1CCN(c2ccc(C3CCC(=O)NC3=O)c(F)c2)CC1)C1CCN(c2ccc(Nc3ncc(Cl)c(Nc4cccc5c4N(S(C)(=O)=O)CC5)n3)c3c2CCO3)CC1 (stereo not drawn) [Example 46, 3-(4-(4-(2-((1-(7-((5-chloro-4-((1-(methylsulfonyl)indolin-7-yl)amino)pyrimidin-2-yl)amino)-2,3-dihydrobenzofuran-4-yl)piperidin-4-yl)(methyl)amino)ethyl)piperidin-1-yl)-2-fluorophenyl)piperidine-2,6-dione]
51.8	> 10000	CN(CCc1ccc(C2CCC(=O)NC2=O)c(F)c1)C1CCN(c2ccc(Nc3ncc(Cl)c(Nc4cccc5c4N(S(C)(=O)=O)CC5)n3)c3c2CCO3)CC1 (stereo not drawn) [Example 48, 3-(4-(2-((1-(7-((5-chloro-4-((1-(methylsulfonyl)indolin-7-yl)amino)pyrimidin-2-yl)amino)-2,3-dihydrobenzofuran-4-yl)piperidin-4-yl)(methyl)amino)ethyl)-2-fluorophenyl)piperidine-2,6-dione]
138	> 10000	CN(CCC1CCN(c2ccc(C3CCC(=O)NC3=O)cc2)CC1)C1CCN(c2ccc(Nc3ncc(Cl)c(Nc4cccc5c4N(S(C)(=O)=O)CC5)n3)c3c2CCO3)CC1 (stereo not drawn) [Example 49, 3-(4-(4-(2-((1-(7-((5-chloro-4-((1-(methylsulfonyl)indolin-7-yl)amino)pyrimidin-2-yl)amino)-2,3-dihydrobenzofuran-4-yl)piperidin-4-yl)(methyl)amino)ethyl)piperidin-1-yl)phenyl)piperidine-2,6-dione]
36.9	7.5	CN(CCCC1CN(c2ccc3c(c2)C(=O)N(C2CCC(=O)NC2=O)C3=O)C1)C1CCN(c2ccc(Nc3ncc(Cl)c(Nc4cccc5c4N(S(C)(=O)=O)CC5)n3)c3c2CCO3)CC1 (stereo not drawn) [Example 50, 5-(3-(3-((1-(7-((5-chloro-4-((1-(methylsulfonyl)indolin-7-yl)amino)pyrimidin-2-yl)amino)-2,3-dihydrobenzofuran-4-yl)piperidin-4-yl)(methyl)amino)propyl)azetidin-1-yl)-2-(2,6-dioxopiperidin-3-yl)isoindoline-1,3-dione]
12.4	19.5	CS(=O)(=O)N1CCc2cccc(Nc3nc(Nc4ccc(N5CCC(N6CCN(CCC7CCN(c8ccc(C9CCC(=O)NC9=O)c(F)c8)CC7)CC6)CC5)c5c4OCC5)ncc3Cl)c21 (stereo not drawn) [Example 51, 3-(4-(4-(2-(4-(1-(7-((5-chloro-4-((1-(methylsulfonyl)indolin-7-yl)amino)pyrimidin-2-yl)amino)-2,3-dihydrobenzofuran-4-yl)piperidin-4-yl)piperazin-1-yl)ethyl)piperidin-1-yl)-2-fluorophenyl)piperidine-2,6-dione]
